# Activity calls are given as the source filed them. The rule behind the calls is not given here.
# Assays:
# [1] = molecular target: T1, Muscarinic acetylcholine receptor M1 (Homo sapiens) (UniProt P11229); experiment: Agonist activity at human muscarinic M1 acetylcholine receptor expressed in CHO cells assessed as increase in IP1 accumulation at 1 uM incubated for 30 mins by FRET based HTRF assay; type: functional, cell-based
# T1 sequence (whole entry): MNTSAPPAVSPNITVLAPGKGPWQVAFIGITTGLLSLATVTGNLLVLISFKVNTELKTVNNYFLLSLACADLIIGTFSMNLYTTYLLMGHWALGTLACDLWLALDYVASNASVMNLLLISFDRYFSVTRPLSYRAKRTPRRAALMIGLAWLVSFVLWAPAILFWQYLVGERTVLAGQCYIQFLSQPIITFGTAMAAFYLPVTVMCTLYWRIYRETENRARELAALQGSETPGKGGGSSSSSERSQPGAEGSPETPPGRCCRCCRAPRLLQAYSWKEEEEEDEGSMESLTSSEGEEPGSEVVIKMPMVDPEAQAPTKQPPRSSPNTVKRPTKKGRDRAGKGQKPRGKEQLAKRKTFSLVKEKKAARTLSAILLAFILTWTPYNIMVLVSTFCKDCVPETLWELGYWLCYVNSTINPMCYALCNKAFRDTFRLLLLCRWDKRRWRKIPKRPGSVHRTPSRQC
# [2] = molecular target: T1, Muscarinic acetylcholine receptor M1 (Homo sapiens); experiment: Partial agonist activity at human muscarinic M1 acetylcholine receptor expressed in CHO cells assessed as increase in IP1 accumulation at 10 uM incubated for 30 mins by FRET based HTRF assay; type: functional, cell-based
# [3] = molecular target: T1, Muscarinic acetylcholine receptor M1 (Homo sapiens); experiment: Partial agonist activity at human muscarinic M1 acetylcholine receptor expressed in CHO cells assessed as increase in IP1 accumulation at 10 uM incubated for 30 mins by FRET based HTRF assay relative to 100 uM acetylcholine; type: functional, cell-based
# [4] = molecular target: T1, Muscarinic acetylcholine receptor M1 (Homo sapiens); experiment: Partial agonist activity at human muscarinic M1 acetylcholine receptor expressed in CHO cells assessed as increase in IP1 accumulation at 10 uM incubated for 30 mins in presence of 1 uM Gq protein inhibitor UBO-QIC by FRET based HTRF assay; type: functional, cell-based
# [5] = molecular target: T2, Muscarinic acetylcholine receptor M1 (Homo sapiens, UniProt P11229); experiment: biochemical
# T2 sequence (P11229 whole entry): T1 sequence (whole entry)
# [6] = molecular target: T2, Muscarinic acetylcholine receptor M1
# Description: Partial agonist activity at human muscarinic M1 acetylcholine receptor expressed in CHO cells assessed as increase in IP1 accumulation incubated for 30 mins by FRET based HTRF assay
# [7] = molecular target: T1, Muscarinic acetylcholine receptor M1 (Homo sapiens); experiment: Modulator activity at human muscarinic M1 acetylcholine receptor expressed in CHO cell membranes assessed as induction of left shift of acetylcholine-induced inhibition of [3H]NMS binding by radioligand binding assay
# [8] = molecular target: T1, Muscarinic acetylcholine receptor M1 (Homo sapiens); experiment: Modulator activity at human muscarinic M1 acetylcholine receptor expressed in CHO cell membranes assessed as reduction in pIC50 for acetylcholine-induced inhibition of [3H]NMS binding by radioligand binding assay
# [9] = molecular target: T1, Muscarinic acetylcholine receptor M1 (Homo sapiens); experiment: Displacement of [3H]NMS from human muscarinic M1 acetylcholine receptor expressed in CHO cell membranes by radioligand binding assay
# [10] = molecular target: T1, Muscarinic acetylcholine receptor M1 (Homo sapiens); experiment: Allosteric inhibition of [3H]NMS dissociation rate constant k_1 from human muscarinic M1 acetylcholine receptor expressed in CHO cell membranes by radioligand binding assay; settings: concentration not given here
# [11] = molecular target: T1, Muscarinic acetylcholine receptor M1 (Homo sapiens); experiment: Allosteric inhibition of [3H]NMS dissociation from human muscarinic M1 acetylcholine receptor expressed in CHO cell membranes by radioligand binding assay
# [12] = molecular target: T1, Muscarinic acetylcholine receptor M1 (Homo sapiens); experiment: Partial agonist activity at human muscarinic M1 acetylcholine receptor expressed in CHO cells assessed as increase in IP1 accumulation at 10 uM incubated for 30 mins in presence of 100 ng/ml Gi protein inhibitor PTX by FRET based HTRF assay; type: functional, cell-based
# [13] = molecular target: T1, Muscarinic acetylcholine receptor M1 (Homo sapiens); experiment: Partial agonist activity at human muscarinic M1 acetylcholine receptor expressed in CHO cells assessed as increase in IP1 accumulation at 1 uM incubated for 30 mins by FRET based HTRF assay relative to 100 uM acetylcholine; type: functional, cell-based
# [14] = molecular target: T1, Muscarinic acetylcholine receptor M1 (Homo sapiens); experiment: Partial agonist activity at human muscarinic M1 acetylcholine receptor expressed in CHO cells assessed as increase in IP1 accumulation at 0.3 uM incubated for 30 mins by FRET based HTRF assay relative to 100 uM acetylcholine; type: functional, cell-based
# [15] = molecular target: T1, Muscarinic acetylcholine receptor M1 (Homo sapiens); experiment: Allosteric inhibition of [3H]NMS dissociation from human muscarinic M1 acetylcholine receptor expressed in CHO cell membranes assessed as half life of dissociation by radioligand binding assay
# [16] = molecular target: T1, Muscarinic acetylcholine receptor M1 (Homo sapiens); experiment: Allosteric inhibition of [3H]NMS dissociation from human muscarinic M1 acetylcholine receptor expressed in CHO cell membranes assessed as […] in half life of dissociation by radioligand binding assay
# [17] = molecular target: T1, Muscarinic acetylcholine receptor M1 (Homo sapiens); experiment: Displacement of [3H]NMS from human muscarinic M1 acetylcholine receptor expressed in CHO cell membranes at 1 uM by radioligand binding assay
# [18] = molecular target: T1, Muscarinic acetylcholine receptor M1 (Homo sapiens); settings: CHO
# [19] = molecular target: T1, Muscarinic acetylcholine receptor M1 (Homo sapiens); settings: CHO; remark: listed apart in the source
# [20] = molecular target: T1, Muscarinic acetylcholine receptor M1 (Homo sapiens); experiment: Partial agonist activity at human muscarinic M1 acetylcholine receptor expressed in CHO cells assessed as increase in IP1 accumulation at 10 uM incubated for 30 mins by FRET based HTRF assay in presence of 1 uM atropine; type: functional, cell-based
Activity [4],Kd [5],Structure (SMILES),Activity [1],Activity [2],EC50 [6],also measured
–,–,O=C(NCCCCBr)c1cn(Cc2ccccc2)c2cc(Cl)c(F)cc2c1=O,inactive,inactive,–,–
–,–,CC[C@@H]1SC2(CCNCC2)NC1=O,–,–,–,Emax [3]: 12%
inactive,851 nM,C[N+](C)(CC#CCOC1=NOCC1)CCCCCCNC(=O)c1cn(Cc2ccccc2)c2cc(Cl)c(F)cc2c1=O,–,–,302 nM,–
–,–,O=C(NCCCCCCBr)c1cn(Cc2ccccc2)c2c(F)cccc2c1=O,inactive,inactive,–,inhibition [7]: inactive; inhibition [8]: Active; Imax [9]: 10 µM; inhibition [10]: 47%; pEC0.5 [11]: 6.15
–,166 nM,CC[C@@H]1SC2(CCNCC2)N(CCCCCCCCOc2ccc3cc(Cn4cc(C(=O)O)c(=O)c5cccc(F)c54)ccc3c2)C1=O,–,–,60.3 nM,Activity [12]: Active; Emax [3]: 61%
–,–,CCCCCCCCOc1ccc2cc(Cn3cc(C(=O)O)c(=O)c4cccc(F)c43)ccc2c1,–,–,–,Activity [12]: Active; Emax [13]: 1%
–,–,COc1ccc2cc(Cn3cc(C(=O)O)c(=O)c4cccc(F)c43)ccc2c1,–,–,–,Activity [12]: Active; Emax [14]: 1%
–,–,COc1ccc(Cn2cc(C(=O)O)c(=O)c3ccccc32)cc1,inactive,Active,–,–
–,–,O=C(NCCCCBr)c1cn(Cc2ccccc2)c2c(F)cccc2c1=O,inactive,inactive,–,inhibition [7]: inactive; inhibition [8]: Active; Imax [9]: 3 µM; inhibition [10]: 35%; pEC0.5 [11]: 5.9
–,–,CCCCCCCCN1CCC(n2c(=O)[nH]c3ccccc32)CC1,–,–,537 nM,Activity [12]: Active; T1/2 [15]: 8.9 min; fold change (FC) [16]: 3; inhibition [10]: 36%; pEC0.5 [11]: 5.94
inactive,74.1 nM,C[N+](C)(CC#CCOC1=NOCC1)CCCCCCNC(=O)c1cn(Cc2ccccc2)c2cc(Br)ccc2c1=O,–,–,15.5 nM,–
inactive,151 nM,C[N+](C)(CC#CCOC1=NOCC1)CCCCCCNC(=O)c1cn(Cc2ccccc2)c2ccc(F)cc2c1=O,–,–,58.9 nM,–
–,–,O=C(NCCCCCCBr)c1cn(Cc2ccccc2)c2cc(Cl)c(F)cc2c1=O,inactive,inactive,–,inhibition [17]: Active
–,–,O=C(NCCCCBr)c1cn(Cc2ccccc2)c2cc(Br)ccc2c1=O,inactive,inactive,–,–
inactive,490 nM,C[N+](C)(CC#CCOC1=NOCC1)CCCCCCNC(=O)c1cn(Cc2ccccc2)c2c(F)cccc2c1=O,–,–,178 nM,inhibition [7]: inactive; pKA [18]: 6.98; inhibition [8]: Active; pKb [19]: 6.3; inhibition [10]: 15%; pEC0.5 [11]: 6.1
–,–,O=C(NCCCCCCBr)c1cn(Cc2ccccc2)c2cc(Br)ccc2c1=O,inactive,inactive,–,inhibition [17]: Active
–,–,CC[C@@H]1SC2(CCNCC2)N(CCCOc2ccc3cc(Cn4cc(C(=O)O)c(=O)c5cccc(F)c54)ccc3c2)C1=O,–,–,–,Activity [12]: Active; Emax [3]: 55%; Activity [20]: inactive

Structure (SMILES),Activity [4],Kd [5],Activity [1],Activity [2],EC50 [6],also measured
C[N+](C)(C)CC#CCOC1=NOCC1,–,2140 nM,–,–,2.04 nM,–
C[N+](C)(CC#CCOC1=NOCC1)CCCCNC(=O)c1cn(Cc2ccccc2)c2cc(Br)ccc2c1=O,inactive,141 nM,–,–,63.1 nM,–
C[N+](C)(CC#CCOC1=NOCC1)CCCCNC(=O)c1cn(Cc2ccccc2)c2cc(Cl)c(F)cc2c1=O,inactive,72.4 nM,–,–,32.4 nM,–
C[N+](C)(CC#CCOC1=NOCC1)CCCCNC(=O)c1cn(Cc2ccccc2)c2c(F)cccc2c1=O,inactive,151 nM,–,–,57.5 nM,inhibition [7]: inactive; pKA [18]: 6.64; inhibition [8]: Active; pKb [19]: 6.92; inhibition [10]: 18%; pEC0.5 [11]: 6.04

# Source: ChEMBL document CHEMBL3414563, “Rational design of partial agonists for the muscarinic m1 acetylcholine receptor” (J Med Chem, 2015)
